Activity calls are given as the source filed them. No cut-off for these calls is given here.

By IC50 is commonly meant the concentration that gives 50% inhibition.

The target in test [1] is T1, Heat shock protein HSP90 (Homo sapiens, UniProt P07900+P08238). Kind of test: Inhibition of Hsp90 in human MCF7 cell lysates assessed as interaction with Cy3b-conjugated geldanamycin by FP assay. In kind it is cell-free.
For test [2], the target named is T1, Heat shock protein HSP90. Kind of test: Inhibition of Hsp90 in human MCF7 cells assessed as Her2 level after 24 hrs by Western blot. In kind it is cell-based. Background: Immunoblotting shows a protein as a band on a membrane.
In a further test the test system is MCF7. Kind of test: Induction of Her2 degradation in human MCF7 cells after 24 hrs by Western blot analysis. In kind it is functional, cell-based. The conditions noted are these: MCF7, 24 h.

As for `CCC(CC)NCCCNc1cc(OC)cc2cccnc12`, the IC50 at Heat shock protein HSP90 [1] is 40 µM; on Heat shock protein HSP90 [2] it was 13 µM.
`CCN(CC)CCCCNc1cc(O)cc2cccnc12`: on Heat shock protein HSP90 [1], the IC50 is over 50 µM. Further, the outcome on Heat shock protein HSP90 [2] was inactive.
For `CC(CCN(C)C)Nc1cc(O)cc2cccnc12` (stereo unspecified), the values for the IC50 at Heat shock protein HSP90 [1] and at Heat shock protein HSP90 [2] were 0.8 µM and 30 µM, respectively.
`COc1cc(NC(C)CCCNC(C)C)c2ncccc2c1` (stereo unspecified): the IC50 at Heat shock protein HSP90 [1] was 14.4 µM. At Heat shock protein HSP90 [2], the outcome was inactive.
For `COc1ccc(Oc2c(OC)cc(NCCCCCNC(C)C)c3ncccc23)cc1` the same measures were over 50 µM and “inactive”.
The corresponding values for `NCCCCNc1cc(O)cc2cccnc12` are under 1.6 µM and “inactive”.
Consider `CCCNCCCC(C)Nc1cc(OC)cc2c(C)ccnc12` (stereo unspecified), for which the IC50 at Heat shock protein HSP90 [1] was over 50 µM. Besides, the outcome on Heat shock protein HSP90 [2] was inactive.
For `NCCCNc1cc(O)cc2cccnc12` the same measures were 7.6 µM and “inactive”.
For `CCN(CC)CCCNc1cc(OC)cc2ccc(OC)nc12` the same measures were 14 µM and “inactive”.
The corresponding values for `COc1cc(NCCN(C(C)C)C(C)C)c2ncccc2c1` are 40 µM and “inactive”.
Regarding `COc1cc(NCCCCN)c2ncccc2c1`, the IC50 at Heat shock protein HSP90 [1] was over 50 µM; on Heat shock protein HSP90 [2], 25 µM.
For `CC(C)NCCCCCNc1cc(O)cc2cccnc12` the same measures were 2.4 µM and 6 µM.
On to `CC(C)NCCCC(C)Nc1cc(O)cc2cccnc12` (stereo unspecified), for which, on Heat shock protein HSP90 [1], the IC50 was under 1.6 µM. Further, at Heat shock protein HSP90 [2], the outcome was inactive.
`COc1cc(NCCCC(C)N)c2ncccc2c1.Cl.Cl` (stereo unspecified): the IC50 on Heat shock protein HSP90 [1] was 5.8 µM; at Heat shock protein HSP90 [2] it was 5 µM.
The corresponding values for `NCCCCCNc1cc(O)cc2cccnc12` are under 1 µM and 20 µM.
Turning to `CCC(C)(C)NCCCCCNc1cc(OC)cc2cccnc12`, at Heat shock protein HSP90 [1], the IC50 is over 50 µM. Further, the result on Heat shock protein HSP90 [2] was inactive.
The corresponding values for `CC(N)CCCNc1cc(O)cc2cccnc12` (stereo unspecified) are under 1.6 µM and “inactive”.
Regarding `COc1cc(NCCN(CC(C)C)CC(C)C)c2ncccc2c1`, the values for the IC50 at Heat shock protein HSP90 [1] and on Heat shock protein HSP90 [2] were 4.9 µM and 1.6 µM, respectively.
In the case of `CCN(CC)CCCC(C)Nc1cc(O)cc2cccnc12` (stereo unspecified), the IC50 at Heat shock protein HSP90 [1] was 1.1 µM. Besides, the outcome on Heat shock protein HSP90 [2] was inactive.
On to `CCN(CC)CCCNc1cc(OC)c(Nc2ccccc2)c2cccnc12`, for which the IC50 on Heat shock protein HSP90 [1] turned out to be 2.1 µM; on Heat shock protein HSP90 [2], 25 µM.
In the case of `COc1cc(NC(C)CCCN)c2ncccc2c1Oc1ccc(Cl)cc1` (stereo unspecified), on Heat shock protein HSP90 [1], the IC50 was over 50 µM. The result on Heat shock protein HSP90 [2] was inactive.
For `COc1cc(NCCCN(C(C)C)C(C)C)c2nc(OC)cc(Cl)c2c1` the same measures were over 50 µM and “inactive”.
Take `CCC(N)CCNc1cc(O)cc2cccnc12` (stereo unspecified): the IC50 on Heat shock protein HSP90 [1] was under 1.6 µM. In addition, the result at Heat shock protein HSP90 [2] was inactive.
With `CCC(C)NCCNc1cc(OC)cc2cccnc12` (stereo unspecified), the IC50 on Heat shock protein HSP90 [1] (read-out: IC50) was found to be 3.1 µM. Also, the result on Heat shock protein HSP90 [2] was inactive.
In the case of `CCCCN(CCCC)CCNc1cc(OC)cc2cccnc12`, the IC50 on Heat shock protein HSP90 [1] is 40 µM. Moreover, the outcome on Heat shock protein HSP90 [2] was inactive.
For `CC(N)CCCCNc1cc(O)cc2cccnc12` (stereo unspecified), the values for the IC50 on Heat shock protein HSP90 [1] and on Heat shock protein HSP90 [2] were under 1.6 µM and 20 µM, respectively.
On to `Br.CCN(CC)CCCCCNc1cc(O)cc2cccnc12`, for which the IC50 in the test on MCF7 turned out to be 1 µM; at Heat shock protein HSP90 [1], 0.73 µM; at Heat shock protein HSP90 [2], 1 µM.
`COc1cc(NC(C)CCCNC(C)C)c2ncccc2c1OC` (stereo unspecified): the IC50 was found to be 44 µM on Heat shock protein HSP90 [1] and 25 µM at Heat shock protein HSP90 [2].
Turning to `CC(CCCN)Nc1cc(O)cc2cccnc12` (stereo unspecified), the IC50 on Heat shock protein HSP90 [1] amounted to 1.8 µM. The result on Heat shock protein HSP90 [2] was inactive.
The corresponding values for `CCCC(C)N(CC)CCNc1cc(OC)cc2cccnc12` (stereo unspecified) are 8 µM and “inactive”.

(Values after ChEMBL document CHEMBL1155064, “Discovery of aminoquinolines as a new class of potent inhibitors of heat shock protein 90 (Hsp90): Synthesis, biology, and molecular modeling” (Bioorg Med Chem, 2008).)
